Measured values: US20140213453A1, “PLANT GROWTH REGULATION” (SYNGENTA PARTICIPATIONS AG, priority 2011, published 2014)

Key:
Assay type in all cases: in vivo
winter rye (Rekrut) = assay: Glasshouse trial, lodging after leaf spray at growth stage 30, winter rye; settings: untreated check 18.9
Excerpt: (§1) A glasshouse trial was setup to compare growth regulation effects of trinexapac-ethyl, cis-jasmone, and mixtures of trinexapac-ethyl and cis-jasmone at various rates, on summer barley (Pasadena) and winter rye (Rekrut). Each treatment was applied as a spray to the leaves of the plant at plant growth stage 30 (start of stem elongation). Assessments of lodging were made 30 days after application; the results are expressed as percentage lodging in Table 2. [table]

summer barley (Pasadena) = assay: Glasshouse trial, lodging after leaf spray at growth stage 30, summer barley; settings: for % lodging 30 DAA: summer barley, untreated check 32.2
Excerpt: as §1

barley = assay: Trial in Switzerland, growth regulation (plant height) on barley; settings: rates g AI/ha: TXP (Moddus EC250) 75, CJN (EC300) 50, TXP + CJN 75 + 50, untreated check 89
Excerpt: A trial was setup in Switzerland to compare growth regulation effects of trinexapac-ethyl, cis-jasmone, and mixtures of trinexapac-ethyl and cis-jasmone on barley. Assessments of plant height were made 21 days after application.

[1] = tested on: Poa annua golf course fairway; assay: Turf study, clipping weights on golf course fairway; settings: for Clipping weight (grams) per plot, 24-June / Clipping weight (grams) per plot, 10-June / Clipping weight (grams) per plot, 17-June / Clipping weight (grams) per plot, 3-July / Clipping weight (grams) per plot, 4-June: 3 applications on a 4 week schedule; for Clipping weight (grams) per plot, 24-June / Clipping weight (grams) per plot, 10-June / Clipping weight (grams) per plot, 17-June / Clipping weight (grams) per plot, 3-July / Clipping weight (grams) per plot, 4-June / Clipping weight (grams) per plot, Cumulative Clipping total: g ai/ha: TXP 96, CJN 50, TXP + cis-jasmone 72 + 50; for Clipping weight (grams) per plot, 24-June: check 11.95; for Clipping weight (grams) per plot, 10-June: check 12.1; for Clipping weight (grams) per plot, 17-June: check 13.8; for Clipping weight (grams) per plot, 3-July: check 15.7; for Clipping weight (grams) per plot, 4-June: check 21.5; for Clipping weight (grams) per plot, Cumulative Clipping total: total over all rating dates (not all shown), check 194
Method: A study was conducted on Poa annua golf course […], to compare the effects of treatment with cis-jasmone alone, trinexapac-ethyl alone, and combinations of cis-jasmone and trinexapac-ethyl. Clipping weights were measured at regular intervals.

[2] = Treatment 2: TXP (Moddus) 200 g AI/ha
[3] = Treatment 3: TXP (Moddus) 100 g AI/ha

Compound	% lodging 30 DAA (winter rye (Rekrut); Treatment 4: CJN 300 g AI/ha) [%]	% lodging 30 DAA (winter rye (Rekrut); Treatment 5: CJN 150 g AI/ha) [%]	% lodging 30 DAA (summer barley (Pasadena); Treatment 4: CJN 300 g AI/ha) [%]	% lodging 30 DAA (summer barley (Pasadena); Treatment 5: CJN 150 g AI/ha) [%]	effect on lodging, in words (summer barley (Pasadena); text summary for summer barley and winter rye, cis-jasmone treatments 4 and 5 compared to treatment 1 (untreated))	Plant height (cm) 21DAA (barley) [cm]	Clipping weight (grams) per plot, 24-June [1]	Clipping weight (grams) per plot, 10-June [1]	Clipping weight (grams) per plot, 17-June [1]	Clipping weight (grams) per plot, 3-July [1] [a grams]	Clipping weight (grams) per plot, 4-June [1]	effect on clipping weights, in words ([1]; Poa annua turf, compared to the untreated control)	Clipping weight (grams) per plot, Cumulative Clipping total [1]	% lodging 30 DAA (winter rye (Rekrut); [2]) [%]	% lodging 30 DAA (winter rye (Rekrut); [3]) [%]	% lodging 30 DAA (summer barley (Pasadena); [2]) [%]	% lodging 30 DAA (summer barley (Pasadena); [3]) [%]
CC/C=C\CC1=C(C)CCC1=O [CJN, cis-jasmone]	23.3	30.0	60.0	70.0	significantly increases lodging	90	14.7 a grams	12.8 a grams	17.69 a grams	19.2	21.7 a grams	increased clipping weights	213.5 a grams	–	–	–	–
CCOC(=O)C1CC(=O)C(=C(O)C2CC2)C(=O)C1 (stereo not drawn) [TXP, trinexapac-ethyl, reference compound]	–	–	–	–	–	90	10.71 grams	9.27 d grams	11.35 grams	18.2	18.1 grams	–	173 def grams	0.0	6.7	6.7	10.0
